Measurements as given in patent US12415926B2, “Small tunable fluorophores for the detection and imaging of biomolecules” (The University Court of the University of Edinburgh, priority 2019, dated 2025).

Legend:
[1] = Optical properties of SCOTfluors (absorbance, emission, extinction coefficient, quantum yield, solvatochromism); type: physicochemical
Experimental: All compounds were dissolved in different organic solvents, including toluene, chloroform, tetrahydrofuran, ethanol, DMSO and water (final concentrations: 10-50 μM). Fluorescence spectra were acquired on a spectrophotometer upon excitation at their maxima absorbance wavelengths.
The optical properties of SCOTfluor-80, 79, 78, 76 and 81 were compared with the properties of the original NBD.

GLUT4 = molecular target: T1, GLUT4 (Homo sapiens, UniProt P14672); experiment: Uptake in GLUT4-EGFP transfected HeLa cells (fluorescence microscopy); type: cell-based; conditions: 100 μM
T1 construct: PYP (photoactive yellow protein tag); HA; expressed in transfected cells; host or cells: HeLa
T1 sequence (P14672 1-509): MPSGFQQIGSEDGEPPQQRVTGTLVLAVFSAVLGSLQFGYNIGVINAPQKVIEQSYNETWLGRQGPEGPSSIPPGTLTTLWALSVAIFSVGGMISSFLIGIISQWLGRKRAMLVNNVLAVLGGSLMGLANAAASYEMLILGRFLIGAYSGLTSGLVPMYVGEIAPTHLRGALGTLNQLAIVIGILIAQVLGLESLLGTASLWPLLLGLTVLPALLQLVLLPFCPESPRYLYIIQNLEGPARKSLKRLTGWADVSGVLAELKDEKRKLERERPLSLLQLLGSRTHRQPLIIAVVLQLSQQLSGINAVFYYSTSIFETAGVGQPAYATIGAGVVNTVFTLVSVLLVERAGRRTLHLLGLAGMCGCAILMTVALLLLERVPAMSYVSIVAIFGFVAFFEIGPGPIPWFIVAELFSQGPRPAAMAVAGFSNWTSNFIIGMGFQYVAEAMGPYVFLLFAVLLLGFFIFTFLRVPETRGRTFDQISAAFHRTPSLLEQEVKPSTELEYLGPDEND
Experimental: (§1) A-F) Green (GLUT4-EGFP), red (SCOTfluor-89, 100 μM) and merged (Hoechst 33342) images of HeLa cells without additional glucose (A-C) and in media containing 5 mM D-glucose ([…]). White arrows identify co-localization of GLUT4-EGFP and SCOTfluor-89. Scale bar: 10 μm. G) Fluorescence emission spectra of BFP (blue), GFP (green) and SCOTfluor-89 (red). H) Insulin-dependent (100 nM, 1 h) uptake of SCOTfluor-89 (red, 100 μM) in GLUT4-EGFP HeLa cells. I) Chemical structures of compounds SCOTfluor-54 and SCOTfluor-89. J) In vivo images of the head in zebrafish embryos (28 hpf) after injection of SCOTfluor-54 or SCOTfluor-89 (both 50 pmol) to the yolk sac (blue arrowheads). Fluorescence images were taken of wildtype zebrafish or zebrafish that had been injected at one cell stage with 4.2 ng anti-sense glut2 morpholino. Yellow arrows point at midbrain and hindbrain regions within the zebrafish embryo heads. Scale bar: 100 μm.
(§2) A549 and HeLa cells were obtained from LGC Standards and cultured in Dulbecco's modified Eagle's medium (DMEM) supplemented with 10% FBS, 100 U mL^−1 penicillin and 0.1 mg mL^−1 streptomycin. For transfection experiments, HeLa cells were transfected with pcDNA-PYP-GLUT4-HA-EGFP. Amplification of plasmid-DNA was performed by transformation of competent E. coli DH5a, followed by isolation of pcDNA-PYP-GLUT4-HA-EGFP using GeneJet Plasmid Miniprep kit (ThermoFisher) according to the manufacturer's instructions. Prior to transfection, pcDNA concentration was determined using NanoDrop. Transfection of HeLa cells was performed according to manufacturer's protocol with 1 μg pcDNA-PYP-GLUT4-HA-EGFP using Lipofectamine 3000. Non-transfected as well as transfected cells were maintained at 37° C. and 5% CO2 throughout the imaging experiments.
Confocal fluorescence microscopy was performed on a confocal Leica SP5 or a spinning disk microscope with excitation at 488 nm (ER Tracker, LysoTracker, EGFP & SCOTfluor-89), 561 nm (SCOTfluor-101) and 405 nm (Hoechst 33342). […]

GLUT2 = experiment: Zebrafish in vivo imaging of glucose uptake; conditions: 28 hpf, 50 pmol into yolk sac
Experimental: as §1
Anti-sense glut2 morpholino (5′-ATGACCTGCAGAC AACAAGGACACC-3′)^1 was reconstituted to 1 mM in nuclease-free H2O and injected at 4.2 ng/embryo into the one-cell stage. Embryos were maintained at 28.5° C., according to standard protocols. Wild-type controls and glut2 morphants were injected into the yolk sac at 28 hours post fertilization (hpf) with compound SCOTfluor-89 (50 pmol) and 1 mg mL^−1 10,000 MW Dextran Cascade Blue® (ThermoFisher), then embedded in 1% low-melting point agarose for live imaging. Live imaging was performed 30 min post-injection on an inverted Leica SP8 confocal microscope using a HC PL APO CS2 10×/0.40 dry lens. Dextran was excited at 405 nm laser and detected at 415-480 nm, while compound SCOTfluor-89 was excited at 488 nm and detected at 498-600 nm.
It was also examined whether SCOTfluors could be used to image in vivo tissues with high metabolic activity. Fluorescent deoxyglucose tracers can monitor glucose uptake in metabo-lically-active cells and tissues, although few have been reported for in vivo use. Herein synthesized compound SCOTfluor-89 was synthetized as an in vivo-compatible glucose analog by nucleophilic substitution of nitrobenzoselenadiazole with 2-deoxyglucosamine. […] The transport of SCOTfluor-89 in HeLa cells transfected with EGFP-tagged GLUT4, the main glucose transporter in mammalian cells was examined. […] Finally, compound SCOTfluor-89 was tested in vivo in zebrafish embryos to visualize regions of high glucose uptake. […] We confirmed that the staining was dependent on the active transport of SCOTfluor-89 through GLUT2 by examining glut2 morpholino-injected zebrafish, which have reduced levels of GLUT2.

HeLa cells = experiment: Cytotoxicity assay in HeLa cells; conditions: 100 μM and 75 μM (1% DMSO), 4 h at 37° C.
Experimental: Cell viabilities were normalized to incubation in cell culture media under the same experimental conditions. A solution of 40% DMSO in cell culture media was used as a known cytotoxic positive control. Values represented as means±s.e.m. (n=3).

[2] = Emission of SCOTfluor-101 in PBS/water and in liposomes; type: physicochemical
A549 cells = experiment: Time-lapse confocal microscopy co-localization with ER and lysosome markers; type: cell-based, human; conditions: 50 μM
Experimental: C) Time-lapse confocal microscopy images of A549 cells treated with SCOTfluor-101 (50 μM, red), LysoTracker Blue (magenta) and ER Tracker Green (green) after 15 min (co-localization: white arrows) and 3 h (co-localization: yellow arrows). Total co-localization coefficients (R) were determined using ImageJ. Scale bar: 15 μm.
as §2
Confocal fluorescence microscopy was performed on a confocal Leica SP5 or a spinning disk microscope with excitation at 488 nm (ER Tracker, LysoTracker, EGFP & SCOTfluor-89), 561 nm (SCOTfluor-101) and 405 nm (Hoechst 33342). Prior to time-lapse imaging and imaging of HeLa cells, cells were incubated in Krebs-Ringer bicarbonate buffer (KRB) (129 mM NaCl, 4.7 mM KCl, 1.2 mM KH2PO4, 5 mM NaHCO3, 10 mM HEPES; 2.5 mM CaCl2, 1.2 mM MgCl2 and 0.2% BSA, pH 7.4) at 37° C. for 3 h. When appropriate, HeLa cells were washed and imaged in KRB with 1 μM Hoechst 33342 at 37° C., 5% CO2.
Then, the properties of SCOTfluors for imaging the trafficking of essential metabolites under physiological conditions. […] This property was exploited to visualize the recycling of ceramide SCOTfluor-101 in real time in human A549 cells using fluorescence confocal microscopy. […]

[3] = glut2 morpholino-injected zebrafish embryos

Compound	cytotoxicity (cell viability) (HeLa cells)	Φ [1]	ε [1]	λabs. [1]	λem. [1]	also measured
O=[N+]([O-])c1ccc(N[C@H]2C(O)O[C@H](CO)[C@@H](O)[C@@H]2O)c2n[se]nc12 (stereo partly drawn) [SCOTfluor-89, (3R,4R,5S,6R)-6-(hydroxymethyl)-3-((7-nitrobenzo[c][1,2,5]selenadiazol-4-yl)amino)tetrahydro-2H-pyran-2,4,5-triol]	no significant cytotoxicity	–	–	–	–	Stokes shift [1]: 115 nm; emission [1]: around 605 nm; transport by GLUT4 (GLUT4): functional substrate of GLUT4; uptake under competition with excess glucose (GLUT4; 5 mM D-glucose): blocked; uptake after pre-treating with insulin (GLUT4; insulin 100 nM, 1 h): increased; in vivo fluorescence staining (GLUT2; [3]): much weaker fluorescence; in vivo fluorescence staining (GLUT2; wildtype zebrafish embryos): bright red fluorescence staining in regions of the developing brain
CCCNc1ccc([N+](=O)[O-])c2n[nH]nc12 [SCOTfluor-79]	–	<0.01	37,300 M^−1cm^−1	420 nm	460 nm	–
CCCNc1ccc([N+](=O)[O-])c2c1=NC1(CCCCC1)N=2 [SCOTfluor-81]	no significant cytotoxicity	0.11	28,300 M^−1cm^−1	546 nm	650 nm	–
CCCNc1ccc([N+](=O)[O-])c2n[se]nc12 [SCOTfluor-76]	no significant cytotoxicity	0.20	16,300 M^−1cm^−1	510 nm	606 nm	–
Nitrobenzodioxazole [NBD, reference compound]	–	0.55	15,400 M^−1cm^−1	486 nm	542 nm	–
CCCNc1ccc([N+](=O)[O-])c2c1=NC(C)(C)N=2 [SCOTfluor-80]	–	0.09	27,300 M^−1cm^−1	564 nm	650 nm	–
CCCCCCCCCCCCC/C=C/[C@@H](O)[C@H](CO)NC(=O)CCCCCNc1ccc([N+](=O)[O-])c2c1=NC(C)(C)N=2 [SCOTfluor-101, N-((2S,3R,E)-1,3-dihydroxyoctadec-4-en-2-yl)-6-((2,2-dimethyl-7-nitro-2H-benzo[d]imidazol-4-yl)amino)hexanamide]	no significant cytotoxicity	–	–	–	–	emission [1]: > 660 nm; increase in emission on incubation with liposomes ([2]; phosphatidylcholine:cholesterol (7:1) liposomes vs PBS): over 15 fold; aggregation in water ([2]; water): minimal aggregation; co-localization (R) with ER Tracker Green (A549 cells; 15 min): 91%; co-localization (R) with LysoTracker Blue (A549 cells; 15 min): 26%; co-localization (R) with LysoTracker Blue (A549 cells; after 3 h): 75%
CCN(CC)c1ccc([N+](=O)[O-])c2n[se]nc12 [SCOTfluor-54]	–	–	–	–	–	in vivo fluorescence staining (GLUT2; [3]): no tissue-specific staining; in vivo fluorescence staining (GLUT2; wildtype zebrafish embryos): no tissue-specific staining
CCCNc1ccc([N+](=O)[O-])c2nsnc12 [SCOTfluor-78]	–	0.54	14,600 M^−1cm^−1	476 nm	548 nm	–
